This is an account of results in paper PMC7930289 (Heliyon, 2021).

The target in assay [1] is hPMCA4 overexpressed in HEK293T cells (Homo sapiens, UniProt P23634). Put plainly: Dynamics of cytoplasmic Ca2+ in HEK293T cells overexpressing hPMCA4. The format is cell-based. Conditions: 50 μM, 30 min; for AUC of [Ca2+]CYT after TG addition: 2 μM TG.
For the next assay, the target named is Na+/K+-ATPase. The following applies: read-out: Ki (Na+/K+-ATPase activity); cited from earlier work.

The structures appear in SMILES notation.

Chain of hPMCA4 overexpressed in HEK293T cells (P23634 1-1205 isoform P23634-6): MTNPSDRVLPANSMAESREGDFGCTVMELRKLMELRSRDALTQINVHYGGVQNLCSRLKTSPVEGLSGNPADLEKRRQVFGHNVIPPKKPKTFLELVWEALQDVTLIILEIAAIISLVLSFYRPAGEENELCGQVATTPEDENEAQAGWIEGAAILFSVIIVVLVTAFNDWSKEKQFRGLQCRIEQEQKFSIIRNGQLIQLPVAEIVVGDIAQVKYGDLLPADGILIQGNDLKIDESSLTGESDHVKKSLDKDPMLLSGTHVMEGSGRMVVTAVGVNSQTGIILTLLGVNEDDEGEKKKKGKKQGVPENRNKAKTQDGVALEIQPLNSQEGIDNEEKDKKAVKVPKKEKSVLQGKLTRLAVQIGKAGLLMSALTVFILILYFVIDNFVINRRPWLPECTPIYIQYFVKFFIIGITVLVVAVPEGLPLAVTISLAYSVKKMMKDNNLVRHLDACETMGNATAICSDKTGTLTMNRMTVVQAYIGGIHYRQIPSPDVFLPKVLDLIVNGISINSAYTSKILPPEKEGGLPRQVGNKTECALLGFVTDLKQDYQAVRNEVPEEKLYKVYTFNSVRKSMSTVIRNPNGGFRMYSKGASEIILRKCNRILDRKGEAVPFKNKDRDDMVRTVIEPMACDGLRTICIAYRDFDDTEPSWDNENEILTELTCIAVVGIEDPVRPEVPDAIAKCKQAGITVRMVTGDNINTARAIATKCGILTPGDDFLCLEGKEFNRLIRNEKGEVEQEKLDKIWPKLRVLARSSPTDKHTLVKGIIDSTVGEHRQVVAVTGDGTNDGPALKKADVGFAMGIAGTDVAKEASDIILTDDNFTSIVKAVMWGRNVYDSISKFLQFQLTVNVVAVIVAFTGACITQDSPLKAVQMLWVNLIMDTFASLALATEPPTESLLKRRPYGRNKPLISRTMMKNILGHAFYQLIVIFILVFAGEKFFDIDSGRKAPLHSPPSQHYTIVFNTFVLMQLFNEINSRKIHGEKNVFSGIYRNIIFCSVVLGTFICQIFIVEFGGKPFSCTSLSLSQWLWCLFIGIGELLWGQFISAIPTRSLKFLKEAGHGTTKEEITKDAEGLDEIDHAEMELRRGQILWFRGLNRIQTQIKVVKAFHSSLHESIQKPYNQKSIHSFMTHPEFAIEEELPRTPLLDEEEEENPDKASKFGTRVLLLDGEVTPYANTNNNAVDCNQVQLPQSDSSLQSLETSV

Consider `O=C(O[C@@H]1Cc2c(O)cc(O)cc2O[C@@H]1c1cc(O)c(O)c(O)c1)c1cc(O)c(O)c(O)c1` [EGCG, (−)-cis-3,3′,4′,5,5′,7-Hexahydroxy-flavane-3-gallate], for which the “hPMCA4 activity in HEK293T cells (Eq. 6)” value in assay [1] is recorded as “significantly decreased”. The “AUC of [Ca2+]CYT after TG addition” value in assay [1] (HEK293T-hPMCA4 cells) is given as “induced an increase in the AUC value”; in assay [1] (HEK293T-mock cells) it was “no significant effect”. In addition, the Ki on Na+/K+-ATPase is 1000 nM.
